Reference: ChEMBL document CHEMBL1201862, “PubChem BioAssay data set” (2004)
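96-well plates; 48 h exposure; 5 concentrations. Endpoints by linear interpolation between flanking doses. Not reached: highest tested concentration assigned. Here, GI50 denotes the concentration required for 50% inhibition of growth.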 The source made the active and inactive calls. No stated cut-off is given here; in the data, active = GI50 up to about 1.1 µM and inactive = higher.

Tests used:
Assay in all cases: DTP human tumour cell line panel, 48 h
HL-60 = tested on: HL-60
SNB-75 = tested on: SNB-75
ACHN = tested on: ACHN
SK-MEL-5 = tested on: SK-MEL-5
SF-268 = tested on: SF-268
TK-10 = tested on: TK-10
SN12C = tested on: SN12C
CCRF-CEM = tested on: CCRF-CEM
UACC-257 = tested on: UACC-257
IGROV-1 = tested on: IGROV-1
MDA-MB-435 = tested on: MDA-MB-435
OVCAR-5 = tested on: OVCAR-5
SK-MEL-28 = tested on: SK-MEL-28
COLO 205 = tested on: COLO 205
M14 = tested on: M14
SW-620 = tested on: SW-620
NCI-H522 = tested on: NCI-H522
EKVX = tested on: EKVX
BT-549 = tested on: BT-549
NCI-H226 = tested on: NCI-H226

`CCOC(=O)C1=C(C)NC(C)=C(C(=O)OCC)C1c1ccc(Cl)cc1` was tested, and the GI50 (HL-60) was 0.774 µM (active), the GI50 (SNB-75) was 18.7 µM (inactive) and the GI50 (ACHN) was 16 µM (inactive). For the same compound, the GI50 (SK-MEL-5) was 13.7 µM (inactive), the GI50 (SF-268) was 17.5 µM (inactive) and the GI50 (TK-10) was 14.8 µM (inactive). For the same compound, the GI50 (SN12C) was 19.4 µM (inactive), the GI50 (CCRF-CEM) was 1.43 µM (inactive) and the GI50 (UACC-257) was 13.4 µM (inactive). For the same compound, the GI50 (IGROV-1) was 15.1 µM (inactive), the GI50 (MDA-MB-435) was 14.4 µM (inactive) and the GI50 (OVCAR-5) was 13.4 µM (inactive). The GI50 (SK-MEL-28) was 20.4 µM (inactive), the GI50 (COLO 205) was 16.3 µM (inactive) and the GI50 (M14) was 16.6 µM (inactive). For the same compound, the GI50 (SW-620) was 16.3 µM (inactive), the GI50 (NCI-H522) was 16 µM (inactive) and the GI50 (EKVX) was 16.8 µM (inactive). The GI50 (BT-549) was 17.1 µM (inactive).

With `CN(C)CCOc1ccc(-c2c(Oc3ccccc3)c(=O)oc3ccccc23)cc1` the GI50 (SNB-75) was 9.59 µM (inactive), the GI50 (ACHN) was 11.9 µM (inactive) and the GI50 (SK-MEL-5) was 3.78 µM (inactive). For the same compound, the GI50 (SF-268) was 12.8 µM (inactive), the GI50 (TK-10) was 13.6 µM (inactive) and the GI50 (SN12C) was 14 µM (inactive). For the same compound, the GI50 (CCRF-CEM) was 0.459 µM (active), the GI50 (UACC-257) was 6.67 µM (inactive) and the GI50 (IGROV-1) was 10.7 µM (inactive). For the same compound, the GI50 (MDA-MB-435) was 4.89 µM (inactive), the GI50 (OVCAR-5) was 15 µM (inactive) and the GI50 (SK-MEL-28) was 12.4 µM (inactive). For the same compound, the GI50 (COLO 205) was 11 µM (inactive), the GI50 (M14) was 2.23 µM (inactive) and the GI50 (SW-620) was 11.4 µM (inactive). For the same compound, the GI50 (NCI-H522) was 11.3 µM (inactive), the GI50 (NCI-H226) was 16 µM (inactive) and the GI50 (EKVX) was 13.9 µM (inactive). For the same compound, the GI50 (BT-549) was 13.6 µM (inactive).

In the case of `Cc1ccc(-c2n[nH]c(=O)n2N2C(=O)C=CC2=O)cc1`, the GI50 (HL-60) is reported as > 100 µM (inactive), the GI50 (SK-MEL-5) is reported as > 100 µM (inactive) and the GI50 (SF-268) is reported as > 100 µM (inactive). For the same compound, the GI50 (TK-10) was > 100 µM (inactive), the GI50 (SN12C) was > 100 µM (inactive) and the GI50 (CCRF-CEM) was > 100 µM (inactive). For the same compound, the GI50 (UACC-257) was > 100 µM (inactive), the GI50 (IGROV-1) was > 100 µM (inactive) and the GI50 (MDA-MB-435) was > 100 µM (inactive). For the same compound, the GI50 (OVCAR-5) was > 100 µM (inactive), the GI50 (COLO 205) was > 100 µM (inactive) and the GI50 (M14) was > 100 µM (inactive). For the same compound, the GI50 (NCI-H522) was > 100 µM (inactive), the GI50 (NCI-H226) was > 100 µM (inactive) and the GI50 (EKVX) was > 100 µM (inactive). For the same compound, the GI50 (BT-549) was > 100 µM (inactive).

In the case of `CC(=O)C(N1CCCCC1)C(O)(C(F)(F)F)C(F)(F)F` (centres undefined), the GI50 (HL-60) is reported as > 100 µM (inactive), the GI50 (SNB-75) is reported as 33.4 µM (inactive) and the GI50 (ACHN) is reported as > 100 µM (inactive). For the same compound, the GI50 (SK-MEL-5) was 19.8 µM (inactive), the GI50 (TK-10) was > 100 µM (inactive) and the GI50 (CCRF-CEM) was 37.3 µM (inactive). The GI50 (UACC-257) was > 100 µM (inactive), the GI50 (IGROV-1) was 89.9 µM (inactive) and the GI50 (MDA-MB-435) was > 100 µM (inactive). The GI50 (OVCAR-5) was > 100 µM (inactive), the GI50 (SK-MEL-28) was > 100 µM (inactive) and the GI50 (COLO 205) was > 100 µM (inactive). For the same compound, the GI50 (M14) was > 100 µM (inactive), the GI50 (SW-620) was 98.2 µM (inactive) and the GI50 (NCI-H522) was 64 µM (inactive). The GI50 (NCI-H226) was > 100 µM (inactive), the GI50 (EKVX) was > 100 µM (inactive) and the GI50 (BT-549) was > 100 µM (inactive).

For `O=C(c1ccc(Cl)cc1)N(C(=O)N1CCC(c2ccccc2)CC1)c1ccccc1`, the GI50 (HL-60) was 17.1 µM (inactive), the GI50 (SNB-75) was 1.83 µM (inactive) and the GI50 (ACHN) was 57.8 µM (inactive). For the same compound, the GI50 (SK-MEL-5) was 15.4 µM (inactive), the GI50 (SF-268) was 82 µM (inactive) and the GI50 (TK-10) was 30.7 µM (inactive). The GI50 (SN12C) was 99.5 µM (inactive), the GI50 (CCRF-CEM) was 18.9 µM (inactive) and the GI50 (UACC-257) was 25.4 µM (inactive). The GI50 (IGROV-1) was 17.9 µM (inactive), the GI50 (MDA-MB-435) was 25.8 µM (inactive) and the GI50 (OVCAR-5) was 0.558 µM (active). The GI50 (SK-MEL-28) was 45.2 µM (inactive), the GI50 (COLO 205) was 33 µM (inactive) and the GI50 (M14) was 18.4 µM (inactive). The GI50 (SW-620) was 92 µM (inactive), the GI50 (NCI-H226) was 17.8 µM (inactive) and the GI50 (EKVX) was 10.4 µM (inactive). For the same compound, the GI50 (BT-549) was 19.5 µM (inactive).

`c1ccc(-c2nc(-c3ccccc3SSc3ccccc3-c3nc(-c4ccccc4)nn3-c3ccccc3)n(-c3ccccc3)n2)cc1` was tested, and the GI50 (HL-60) was > 100 µM (inactive), the GI50 (SNB-75) was > 100 µM (inactive) and the GI50 (ACHN) was > 100 µM (inactive). The GI50 (SF-268) was > 100 µM (inactive), the GI50 (TK-10) was > 100 µM (inactive) and the GI50 (SN12C) was > 100 µM (inactive). For the same compound, the GI50 (CCRF-CEM) was > 100 µM (inactive), the GI50 (IGROV-1) was > 100 µM (inactive) and the GI50 (MDA-MB-435) was > 100 µM (inactive). For the same compound, the GI50 (OVCAR-5) was > 100 µM (inactive), the GI50 (SK-MEL-28) was > 100 µM (inactive) and the GI50 (COLO 205) was > 100 µM (inactive). For the same compound, the GI50 (M14) was > 100 µM (inactive), the GI50 (SW-620) was > 100 µM (inactive) and the GI50 (NCI-H226) was > 100 µM (inactive). The GI50 (EKVX) was > 100 µM (inactive) and the GI50 (BT-549) was > 100 µM (inactive).

`O=C1N[C@H]2c3c(Cl)sc(Cl)c3[C@@H](O)[C@H]2O1` was tested, and the GI50 (HL-60) was > 100 µM (inactive), the GI50 (SNB-75) was > 100 µM (inactive) and the GI50 (ACHN) was > 100 µM (inactive). For the same compound, the GI50 (SK-MEL-5) was > 100 µM (inactive), the GI50 (SF-268) was > 100 µM (inactive) and the GI50 (TK-10) was > 100 µM (inactive). For the same compound, the GI50 (SN12C) was > 100 µM (inactive), the GI50 (CCRF-CEM) was > 100 µM (inactive) and the GI50 (UACC-257) was > 100 µM (inactive). The GI50 (IGROV-1) was > 100 µM (inactive), the GI50 (MDA-MB-435) was > 100 µM (inactive) and the GI50 (OVCAR-5) was > 100 µM (inactive). For the same compound, the GI50 (SK-MEL-28) was > 100 µM (inactive), the GI50 (COLO 205) was > 100 µM (inactive) and the GI50 (M14) was > 100 µM (inactive). For the same compound, the GI50 (SW-620) was > 100 µM (inactive), the GI50 (EKVX) was > 100 µM (inactive) and the GI50 (BT-549) was > 100 µM (inactive).

`O=[N+]([O-])/C(C(Cl)=C(Cl)Cl)=C(/Nc1ccccc1)Sc1ccccc1` was tested, and the GI50 (HL-60) was 20.6 µM (inactive), the GI50 (ACHN) was 19.1 µM (inactive) and the GI50 (SK-MEL-5) was 20.3 µM (inactive). For the same compound, the GI50 (SF-268) was 14 µM (inactive), the GI50 (TK-10) was 27.7 µM (inactive) and the GI50 (SN12C) was 26.9 µM (inactive). The GI50 (CCRF-CEM) was 16.8 µM (inactive), the GI50 (UACC-257) was 16.6 µM (inactive) and the GI50 (IGROV-1) was 19.9 µM (inactive). The GI50 (MDA-MB-435) was 18.1 µM (inactive), the GI50 (SK-MEL-28) was 19.7 µM (inactive) and the GI50 (COLO 205) was 18.5 µM (inactive). The GI50 (M14) was 19.8 µM (inactive), the GI50 (SW-620) was 25.1 µM (inactive) and the GI50 (NCI-H522) was 16.2 µM (inactive). For the same compound, the GI50 (NCI-H226) was 23 µM (inactive), the GI50 (EKVX) was 19.6 µM (inactive) and the GI50 (BT-549) was 25.5 µM (inactive).
